Data reported in patent publication US8314085B2, “Agent for overcoming resistance to anti-cancer agent” (Nippon Chemiphar Co., Ltd., priority 2006, dated 2012).
Structures can show the parent of a compound that is named as a salt. Where two headings read alike, the source gives them in different places.

What was measured:
Flp-In-293/ABCG2 cells = assay: Toxicity to the cells (viability, MTT assay); details: at or up to the concentration of 10 μmol/L
Description: (§1) The cells were cultured under the atmosphere of 5% CO2 using DMEM containing FCS (10%), penicillin (100 U/mL), streptomycin (100 μg/mL), amphotericin B (250 ng/mL), hygromycin B (100 μg/mL), and L-glutamine (2 mmol/L).
(§2) The resistance of Flp-In-293 cells to an agent was profiled by counting living cells using MTT assay. In more detail, the cells were seeded in 96-wells plate at the concentration of 2×10^3 cells/well, and cultured for 24 hours.

BCRP [1] = biological target: T1, BCRP (Homo sapiens, UniProt Q9UNQ0); assay: BCRP-mediated methotrexate transport in membrane vesicles of BCRP-expressing Sf9 cells; details: for inhibitory action on BCRP-mediated methotrexate transport: at concentration of 100 μmol/L
T1 sequence (Q9UNQ0 1-655): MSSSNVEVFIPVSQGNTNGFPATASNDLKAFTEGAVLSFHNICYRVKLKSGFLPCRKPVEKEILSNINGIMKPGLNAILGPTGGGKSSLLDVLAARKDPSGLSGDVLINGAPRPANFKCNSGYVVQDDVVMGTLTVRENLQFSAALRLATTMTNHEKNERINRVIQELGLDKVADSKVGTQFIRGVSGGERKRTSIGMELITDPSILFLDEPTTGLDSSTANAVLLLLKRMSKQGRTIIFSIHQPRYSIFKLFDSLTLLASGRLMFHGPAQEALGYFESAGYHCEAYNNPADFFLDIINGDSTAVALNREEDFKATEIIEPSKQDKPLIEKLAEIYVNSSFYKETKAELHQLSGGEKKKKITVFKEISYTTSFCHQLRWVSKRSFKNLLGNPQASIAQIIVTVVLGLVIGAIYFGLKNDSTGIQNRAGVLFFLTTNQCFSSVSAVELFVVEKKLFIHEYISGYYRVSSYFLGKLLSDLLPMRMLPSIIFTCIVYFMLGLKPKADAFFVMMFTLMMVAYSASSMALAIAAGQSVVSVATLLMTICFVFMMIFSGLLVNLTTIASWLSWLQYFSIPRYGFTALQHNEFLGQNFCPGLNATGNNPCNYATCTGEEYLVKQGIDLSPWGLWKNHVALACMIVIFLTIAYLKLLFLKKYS
Description: (§3) In the experiment, plasma membrane was prepared from BCRP-expressing Sf9 cells.
(§4) The activity of methotrexate transport was measured using 96 wells-plate according to the following method.
(§5) Preparation and Composition of Reaction Solution
(§6) 50 μL of solution containing sucrose (250 mmol/L) and Tris/Hepes (10 mmol/L, pH: 7.4)
(§7) 30 μL of solution containing ATP (3.33 mmol/L), creatine phosphate (33.3 mmol/L), and MgCl2 (33.3 mmol/L)
(§8) (or solution containing creatine phosphate (33.3 mmol/L) and MgCl2 (33.3 mmol/L))
5 μL of creatine kinase (2 mg/mL)
(§9) 2 μL of [^3H]methotrexate (10 mmol/L, final concentration: 200 μmol/L)
(§10) 10 μL of membrane sample of BCRP-expressing Sf9 cells (total protein: 50 μg)
(§11) The reaction solution was incubated at 37° C. for 20 minutes. 1 mL of ice-cooled solution containing sucrose (250 mmol/L), EDTA (2 mmol/L), and Tris/Hepes (10 mmol/L, pH: 7.4) was quickly added to the reaction solution to stop the reaction. Each 270 μL of the mixed solution was poured into each well of MultiScreen™ (Millipore), and sucked. The wells were washed four times with 200 μL of ice-cooled solution containing sucrose (250 mmol/L) and Tris/Hepes (10 mmol/L, pH: 7.4). The radioactivity trapped on a filter of each well was measured. The amount of methotrexate transported into the membrane vesicle was calculated from the radioactivity.

[2] = test system: BCRP-overexpressing cells (Flp-In-293/BCRP); assay: Influence on anti-cancer agent (SN-38) resistance in BCRP-overexpressing cells, MTT assay; type: cell-based; details: Flp-In-293/ABCG2 cells; for degree of reversing resistance to SN-38: at the concentration of 5 μmol/L, 72 hours
Description: as §1, §2

BCRP [3] = biological target: T1, BCRP
Description: as §3, §4, §5, §6, §7, §8
5 μL of creatine kinase (2 mg/mL)
as §9, §10, §11

SMILES: N#Cc1cc(-c2nc3c([O-])ncnc3s2)ccc1Oc1ccc(F)cc1.[K+] [Compound 1, potassium salt of 2-[3-cyano-4-(4-fluorophenoxy)phenyl]-4-hydroxythiazolo[5,4-d]pyrimidine]
- toxicity to the cells / effect on viability (Flp-In-293/ABCG2 cells): did not affect viability
- IC50 (BCRP [1]; read-out: IC50 (concentration inhibiting methotrexate transport by 50%), [3H]methotrexate 200 μmol/L, 37° C., 20 minutes): 460 nM
- effect of overcoming resistance to SN-38 (in words) [2]: reversed the resistance of Flp-In-293/ABCG2 cells to SN-38 in a concentration-dependent manner
- degree of reversing resistance to SN-38 [2]: about 96%

SMILES: N#Cc1cc(-c2nc3cncnc3s2)ccc1Oc1ccc(F)cc1 [Compound 2, 2-[3-cyano-4-(4-fluorophenoxy)phenyl]thiazolo[5,4-d]pyrimidine]
- IC50 (BCRP [1]): 1100 nM
- effect of overcoming resistance to SN-38 (in words) [2]: reversed the resistance of Flp-In-293/ABCG2 cells to SN-38 in a concentration-dependent manner
- degree of reversing resistance to SN-38 [2]: about 90%

SMILES: N#Cc1cc(-c2nc3c(O)ncnc3s2)ccc1Oc1ccccc1 [Compound 3, potassium salt of 2-(3-cyano-4-phenoxyphenyl)-4-hydroxythiazolo[5,4-d]pyrimidine]
- IC50 (BCRP [3]): 230 nM

SMILES: N#Cc1cc(-c2nc3cncnc3s2)ccc1Oc1ccccc1 [Compound 4, 2-(3-cyano-4-phenoxyphenyl)thiazolo[5,4-d]pyrimidine]
- IC50 (BCRP [1]): 660 nM

SMILES: N#Cc1cc(-c2nc3c(O)ncnc3s2)ccc1Oc1ccccc1 [Compound 5, 2-(3-cyano-4-phenoxyphenyl)-4-hydroxythiazolo[5,4-d]pyrimidine]
- toxicity to the cells / effect on viability (Flp-In-293/ABCG2 cells): did not exhibit toxicity to the cells
- degree of reversing resistance to SN-38 [2]: about 96%

SMILES: CC(C)(C)COc1ccc(-n2cc(C(=O)O)cn2)cc1C#N [Compound Y-700, 1-[3-cyano-4-(2,2-dimethylpropoxy)phenyl]-1H-pyrazole-4-carboxylic acid]
- effect of overcoming resistance to SN-38 (in words) [2]: did not exhibit an effect of overcoming the resistance in the concentration not exhibiting toxicity to the cells

SMILES: N#Cc1cc(-c2n[nH]c(-c3ccncc3)n2)ccn1 [FYX-051, 4-[5-pyridin-4-yl-1H-[1,2,4]triazol-3-yl]pyridine-2-carbonitrile]
- IC50 (BCRP [1]): 770 nM
- degree of reversing resistance to SN-38 [2]: about 39%

SMILES: Cc1nc(-c2ccc(OCC(C)C)c(C#N)c2)sc1C(=O)O [TMX-67, Febuxostat]
- toxicity to the cells / effect on viability (Flp-In-293/ABCG2 cells): did not exhibit toxicity to the cells
- IC50 (BCRP [1]): 250 nM
- degree of reversing resistance to SN-38 [2]: about 82%

SMILES: Oc1ncnc2[nH]ncc12 [allopurinol]
- toxicity to the cells / effect on viability (Flp-In-293/ABCG2 cells): did not exhibit toxicity to the cells
- inhibitory action on BCRP-mediated methotrexate transport (BCRP [1]): did not exhibit an inhibitory action
- effect of overcoming resistance to SN-38 (in words) [2]: did not exhibit an effect of overcoming resistance to SN-38

SMILES: O=c1[nH]c(=O)c2c[nH]nc2[nH]1 [oxypurinol]
- inhibitory action on BCRP-mediated methotrexate transport (BCRP [1]): did not exhibit an inhibitory action
- effect of overcoming resistance to SN-38 (in words) [2]: did not exhibit an effect of overcoming resistance to SN-38
